Data from patent US20260069580A1, “PEROXIREDOXIN 3 INHIBITORS AND METHODS OF USE FOR TREATING CANCER” (WAKE FOREST UNIVERSITY HEALTH SCIENCES, priority 2022, published 2026).
pEC50: −log10 of the molar value. In brackets after ≈: the same amount, converted by molar mass. Where two headings read alike, the source gives them in different places.

Columns and labels:
[1] = Solubility Assay; format: physicochemical; design: key: +++: >1 mM; ++: 0.1-1 mM; +: <0.1 mM; −: polymerized; n.d.: not detectable/not measurable; conditions: 20 mM HEPES, 100 mM NaCl, pH 7.5, 18-24 hours at ambient temperature, HPLC
Method: A 20 mM stock solution was made for each compound in DMSO. To measure solubility, 0.03-0.05 mL of the stock was added to 0.27 mL 20 mM HEPES, 100 mM NaCl, pH 7.5. The solution was mixed and rotated 18-24 hours at ambient temperature. The next day, solutions were centrifuged for 10 min at 20,000×g at 24° C. to remove insoluble, solid material. Next, 100 μL of the supernatant containing the soluble compound was added to 900 μL DMSO and High Performance Liquid Chromatography was performed as described in Table 1 and either HPLC gradient 1 (Table 2) for HPLC gradient 2 (Table 3). For each analog, a 200 μM standard and a 20 μM standard were prepared and run in parallel (standards were dissolved completely in 100% DMSO). The amount of compound in the experimental sample was calculated by comparing the area under the curve for compound peak to the area for the closest standard and correcting for dilution.

[2] = system: human SK—OV-3 ovarian cancer cells; assay: Cellular Activity Assay (cytotoxicity, crystal violet); format: cell-based
Description: To test the activity of compounds, two complimentary assays were used as described below. The Biochemical PRX3 Inhibition Assay tests the ability of each compound to crosslink PRX3 in a simple, in vitro system. In the Cellular Activity Assay, we are testing the ability of compounds to kill SK—OV-3 ovarian cancer cells.
The Cellular Activity Assay measures the EC50 of each compound in human SK—OV-3 ovarian cancer cells TS to be taken into the cell, transported to the mitochondria, and crosslink PRX3.
The cytotoxicity of compounds was measured as described in Nelson et al. (2021) Antioxidants (Basel) 10, 150; Cunniff et al. (2015) PloS one 10, e0127310; and Newick et al. (2012) PloS one 7, e39404. SK—OV-3 is an adherent, epithelial, adenocarcenoma cell line obtained from ATCC (ref #: HTB-77). SK—OV-3 cells are resistant to the commonly used chemotherapeutics, cis-platinum and doxorubicin. For this […], SK—OV-3 cells were plated in a 96-well plate. After 24 h recovery, the cells were treated for 48 hr with multiple concentrations of each compound ranging from 0.1-100 μM.
Cells were washed with PBS to remove dead cells and the remaining live cells were fixed with 3.0% formaldehyde and stained with 0.1% crystal violet. The amount of crystal violet was determined by reading the absorbance at 540 nm (crystal violet dye dissolved in 100% methanol) using a plate reader. The signal for crystal violet dye is proportional to the biomass of remaining live cells. GraphPad Prism9 software was used to calculate the effective inhibitory concentration (EC50) of test compounds. Results for each compound, are normalized to the amount of cells in control wells treated with the equivalent concentration of DMSO (negative control). TS or Compound A (Reference Compound) were included in each set of assays as a positive control.

[3] = biological target: T1, purified human PRX3 (Homo sapiens, UniProt P30048); assay: Biochemical PRX3 Inhibition Assay (crosslink by SDS PAGE + mono-adduct by MALDI-TOF MS); conditions: incubated 1-2 hr at 37° C., hydrogen peroxide added
T1 construct: made in house
T1 sequence (P30048 62-256): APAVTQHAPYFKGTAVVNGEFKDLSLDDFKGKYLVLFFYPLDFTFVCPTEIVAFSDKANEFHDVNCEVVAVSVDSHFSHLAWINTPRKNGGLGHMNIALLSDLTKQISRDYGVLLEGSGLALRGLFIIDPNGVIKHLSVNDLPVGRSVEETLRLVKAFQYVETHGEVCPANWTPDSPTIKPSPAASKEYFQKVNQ
Method: This assay tests the ability of each compound to form a covalent adduct with PRX3. The assay is performed as described in Nelson et al. (2021) Antioxidants (Basel) 10, 150; and Cunniff et al. (2015) PloS one 10, eO127310, and follows the appearance of non-reducible PRX3 crosslinks by SDS PAGE gel electrophoresis and follows the appearance of single PRX3 adducts by mass spectrometry. For this assay, purified human PRX3, hydrogen peroxide (the PRX3 substrate) and all the components required to enable PRX3 to catalytically cycle (thioredoxin-thioredoxin reductase-NAPDH system) are included (details below).
The biochemical PRX3 Inhibition assay contains 100 µM PRX3, 50 µM human TRX2, 0.5 μM mouse thioredoxin reductase, and a NADPH regenerating system composed of 3.2 mM glucose 6-phosphate, 3.2 U/ml glucose 6-phosphate dehydrogenase and 0.4 mM NADPH. Samples are incubated for 1-2 hr at 37° C. with either 0.2 mM TS (positive control), compounds or an equivalent volume of DMSO (negative control). During this incubation, hydrogen peroxide is added to induce turnover of PRX3. Reactions are stopped by the addition of a buffer containing 100 mM dithiolthreitol (to break disulfide bonds) and SDS (detergent to denature proteins). NADPH, Glucose 6-Phosphate, and glucose 6-phosphate dehydrogenase were purchased from Sigma Aldrich. PRX3, thioredoxin, and thioredoxin reductase were all purified to >98% purity in the Lowther laboratory according to protocols referenced in Nelson et al. (2021) Antioxidants (Basel) 10, 150; and Cunniff et al. (2015) PloS one 10, e0127310.
To measure the amount of PRX3 crosslink, proteins in the reaction were separated by SDS-polyacrlyamide gel electrophoresis and stained for total protein using GelCode Blue (Life Technologies). The amount of unmodified PRX3 and TS-PRX3 crosslink was measured by densiometric analysis of the signal for the PRX3 band running at the MW of a PRX3 crosslink (˜46 kDa) compared to the PRX3 signal at the MW of the un-modified PRX3 (˜23 kD).
To measure covalent adduct formation on a single PRX3 monomer, each reaction was exchanged into a mass spectrometry compatible buffer containing 40 mM ammonium citrate, pH 8.3 made in HPLC water. Sample was mixed 1:1 with a matrix solution containing 30 mg/mL sinapinic acid in 70% (vol/vol) acetonitrile, 0.2% formic acid and spotted to onto the sample plate. PRX3 mass was measured by MALDI-TOF MS analysis on a Bruker Daltonics MALDI-TOF MS spectrometer. Spectra were analyzed in FLEXAnalysis Software. The intensity of the reduced PRX3 peak (SH) and intensity of the analog adduct peak was determined and corrected for background signal at the adduct peak in the DMSO control. The fraction of single analog adduct in the monomer peak was determined by dividing the intensity of the adduct peak by the summed intensity of the SH and adduct peaks.

[4] = system: Enterococcus hirae (ATCC #10541); assay: Antimicrobial Activity Assay; format: cell-based; conditions: for MIC: Enterococcus hirae
Method: The overnight growth was then diluted into growth media to make a single solution of E. hirae with a final optical density at 600 nm=0.02 AU. A 20 mM stock solution of Thiostrepton in DMSO was made and used to make multiple dilutions of TS in DMSO. Each TS dilution (0.1 mL) was then added to a test tube containing 10 mL of the diluted E. hirae and grown at 37° C. overnight while shaking at 180 rpm. The next morning, each tube was visually inspected to determine if the cells grew. Final concentrations tested were 0.120, 0.090, 0.075, 0.060, 0.045, 0.030, and 0.015 μM TS. […] Three replicates were made on three separate days (n=9). […] For TS analogs, the dilute E. hirae was treated with 20 µM final concentration of each analog (three replicates each). […] DMSO was used as a positive control (complete cell growth) and 20 µM thiostrepton was used as a negative control.

[5] = system: 578 cancer cells lines; conditions: of 578 cancer cells lines tested; cited from earlier work
[6] = HEPES/NaCl buffer, aqueous with cosolvent or surfactant or cyclodextrin, kinetic from dmso stock, read-out: Solubility
[7] = ATCC10541, read-out: Antimicrobial Activity
[8] = SK—OV-3 cells, treated 48 hr, 0.1-100 μM, crystal violet, read-out: EC50
[9] = ATCC10541, E. hirae, overnight growth at 37° C., read-out: Antimicrobial Activity

C=C(NC(=O)c1cn(-c2ccccc2)cn1)C(=O)NC(=C)C(=O)OC [Compound 1, Methyl 2-(2-(1-phenyl-1H-imidazole-4-carboxamido)acrylamido)acrylate]
solubility [1, 6]: < 100 µM | pEC50 ([2]; SK-OV-3, 48 h): 5.00 to 6.00 | PRX3 Inhibition (Crosslink + Mono-adduct) [3]: +++ (>90%) | MIC [4, 7]: > 20 µM

C=C(NC(=O)c1cnn(-c2ccccc2)c1)C(=O)NC(=C)C(=O)OC [Compound 2, Methyl 2-(2-(1-phenyl-1H-pyrazole-4-carboxamido)acrylamido)acrylate]
solubility [1, 6]: > 1000 µM | pEC50 [2, 8]: 4.60 to 5.00 | PRX3 Inhibition (Crosslink + Mono-adduct) [3]: ++ (50-90%) | MIC [4, 9]: > 20 µM

C=C(NC(=O)OCC1CCN(C(=O)OC(C)(C)C)CC1)C(=O)NC(=C)C(=O)OC [Compound 3, Tert-butyl 4-(5,8-dimethylene-3,6,9-trioxo-2,10-dioxa-4,7-diazaundecyl)piperidine-1-carboxylate]
solubility [1]: − | PRX3 Inhibition (Crosslink + Mono-adduct) [3]: + (5-50%)

C=C(NC(=O)OC1CCN(C(=O)OC(C)(C)C)CC1)C(=O)NC(=C)C(=O)OC [Compound 4, Tert-butyl 4-(((3-((3-methoxy-3-oxoprop-1-en-2-yl)amino)-3-oxoprop-1-en-2-yl)carbamoyl)oxy)piperidine-1-carboxylate]
solubility [1, 6]: > 1000 µM | pEC50 [2, 8]: < 4.00 | PRX3 Inhibition (Crosslink + Mono-adduct) [3]: ++ (50-90%) | MIC [4, 9]: > 20 µM

C=C(NC(=O)c1cn(C2CCN(C(=O)OC(C)(C)C)CC2)nn1)C(=O)NC(=C)C(=O)OC [Compound 5, Tert-butyl 4-(4-((3-((3-methoxy-3-oxoprop-1-en-2-yl)amino)-3-oxoprop-1-en-2-yl)carbamoyl)-1H-1,2,3-triazol-1-yl)piperidine-1-carboxylate]
solubility [1, 6]: < 100 µM | pEC50 [2, 8]: 5.00 to 6.00 | PRX3 Inhibition (Crosslink + Mono-adduct) [3]: ++ (50-90%) | MIC [4, 9]: > 20 µM

C=C(NC(=O)c1ccn(C2CCN(C(=O)OC(C)(C)C)CC2)n1)C(=O)NC(=C)C(=O)OC [Compound 6, Tert-butyl 4-(3-((3-((3-methoxy-3-oxoprop-1-en-2-yl)amino)-3-oxoprop-1-en-2-yl)carbamoyl)-1H-pyrazol-1-yl)piperidine-1-carboxylate]
solubility [1, 6]: > 1000 µM | pEC50 [2, 8]: 4.00 to 4.60 | PRX3 Inhibition (Crosslink + Mono-adduct) [3]: +++ (>90%) | MIC [4, 9]: > 20 µM

C=C(NC(=O)c1csc(-c2ccc(NC(=O)CCCCCBr)cc2)n1)C(=O)NC(=C)C(=O)OC [Compound A, Methyl 2-(2-(2-(4-(6-bromohexanamido)phenyl)thiazole-4-carboxamido)acrylamido)acrylate, reference compound]
solubility [1, 6]: < 100 µM | Antimicrobial Activity ([4]; E. hirae, overnight growth at 37° C.): − (>20 μM)

C=C(NC(=O)C(=C)NC(=O)c1csc(C2=N[C@@H]3c4csc(n4)[C@H]4NC(=O)c5csc(n5)[C@H]([C@](C)(O)[C@@H](C)O)NC(=O)[C@H]5CSC(=N5)/C(=C/C)NC(=O)[C@H]([C@@H](C)O)NC(=O)c5csc(n5)[C@]3(CC2)NC(=O)[C@H](C)NC(=O)C(=C)NC(=O)[C@H](C)NC(=O)[C@H]([C@@H](C)CC)N[C@@H]2C=Cc3c([C@H](C)O)cc(nc3[C@H]2O)C(=O)O[C@@H]4C)n1)C(N)=O [Thiostrepton, reference compound]
solubility ([1]; aqueous with cosolvent or surfactant or cyclodextrin, kinetic from dmso stock, read-out: Solubility): < 100 µM | pEC50 ([2]; SK-OV-3, 48 h): 5.00 to 6.00 | PRX3 Inhibition (Crosslink + Mono-adduct) [3]: ++ (50-90%) | tumor cells lines in which meaningful efficacy was shown [5]: 403 | TS concentrations at which complete growth was observed ([4]; E. hirae, overnight at 37° C., visual inspection, n=9): ≤ 0.030 µM | MIC [4, 7]: 0.02 to 0.2 µM (≈ 0.0333 to 0.333 µg/mL) | MIC ([4]; ATCC10541, read-out: TS concentrations at which no growth was observed (MIC determination)): ≥ 0.045 µM
